Data set [1] can be described thus: Paired comparison of sweetness, sucrose solutions in water with or without naringenin. The class given is in vivo, human. The following applies: for Number of Samples Rated Sweeter: 26 paired samples. An excerpt: The term “sweetness” or “sweetness intensity” is understood to mean the relative strength of sweet sensation as observed or experienced by an individual, e.g., a human, or a degree or amount of sweetness detected by a taster, for example on the scale from 0 (none) to 8 (very strong) used in sensory evaluations according to the procedure described in American Society for Testing Materials, Special Technical Publication-434: “Manual on Sensory Testing Methods,” ASTM International, West Conshohocken, Pa. (1996). Sucrose solutions of different concentrations were prepared in water. A naringenin (AuNutra Industries Inc) solution was also prepared in water (100 ppm) and used in all of the following examples. Each test group contained 26 paired samples. In each paired samples, a sucrose solution of a higher concentration was compared for sweetness against that of a lower concentration but in combination with naringenin. The results were represented by the numbers of samples rated as sweeter in paired comparisons, which were then statistically analyzed using binomial distribution for two-sided comparisons at 95% confidence level.

The nature of data set [2]: Paired comparison of sweetness, Reb A solutions in water with or without naringenin. It counts as in vivo, human. An excerpt: The term “sweetness” or “sweetness intensity” is understood to mean the relative strength of sweet sensation as observed or experienced by an individual, e.g., a human, or a degree or amount of sweetness detected by a taster, for example on the scale from 0 (none) to 8 (very strong) used in sensory evaluations according to the procedure described in American Society for Testing Materials, Special Technical Publication-434: “Manual on Sensory Testing Methods,” ASTM International, West Conshohocken, Pa. (1996). Sucrose solutions of different concentrations were prepared in water. A naringenin (AuNutra Industries Inc) solution was also prepared in water (100 ppm) and used in all of the following examples. Each test group contained 26 paired samples. In each paired samples, a sucrose solution of a higher concentration was compared for sweetness against that of a lower concentration but in combination with naringenin. The results were represented by the numbers of samples rated as sweeter in paired comparisons, which were then statistically analyzed using binomial distribution for two-sided comparisons at 95% confidence level. The evaluation is reported in the following: Reb A solutions of different concentrations were prepared in water and the sweetness enhancement by naringenin was similarly evaluated.

The nature of data set [3]: Flavor profile of Reb A water solution (10 ppm) plus naringenin of different concentrations. The class given is in vivo, human. The protocol: A Reb A water solution (10 ppm) was prepared and used as the base. Different amount of naringenin was added to the base to obtain naringenin samples of a series of concentrations ranging from 10 to 1000 ppm.
The conditions of data set [4]: cited from earlier work.
The nature of data set [5]: Sweetness enhancement of artificial sweetener aspartame by naringenin. The class given is in vivo, human. The following applies: aspartame (120 ppm), naringenin 100 ppm. The protocol: (§1) Sucrose solutions of different concentrations were prepared in water. A naringenin (AuNutra Industries Inc) solution was also prepared in water (100 ppm) and used in all of the following examples. In addition, the sweetness enhancement of (i) sucralose (40 ppm), (ii) aspartame (120 ppm) and (iii) acesulfame potassium (120 ppm) by naringenin was also evaluated, respectively.

Data set [6] is described as follows: Flavor profile of non-fat plain yogurt with 5% sucrose plus naringenin of different concentrations. It counts as in vivo, human. The protocol: A Danone Non-Fat Plain Yogurt with 5% sucrose was prepared and used as the base. Different amount of naringenin was added to the base to obtain naringenin samples of a series of concentrations ranging from 10 to 1000 ppm.

For data set [7] the following is noted: cited from earlier work. This is another data set of the same source.
The nature of data set [8]: Sweetness enhancement of artificial sweetener acesulfame potassium by naringenin. It counts as in vivo, human. The note with it: acesulfame potassium (120 ppm), naringenin 100 ppm. The protocol:
as §1

A short description of data set [9]: Paired comparison of sweetness, sucrose & Reb A combination with or without naringenin. It counts as in vivo, human. An excerpt:
The term “sweetness” or “sweetness intensity” is understood to mean the relative strength of sweet sensation as observed or experienced by an individual, e.g., a human, or a degree or amount of sweetness detected by a taster, for example on the scale from 0 (none) to 8 (very strong) used in sensory evaluations according to the procedure described in American Society for Testing Materials, Special Technical Publication-434: “Manual on Sensory Testing Methods,” ASTM International, West Conshohocken, Pa. (1996). Sucrose solutions of different concentrations were prepared in water. A naringenin (AuNutra Industries Inc) solution was also prepared in water (100 ppm) and used in all of the following examples. Each test group contained 26 paired samples. In each paired samples, a sucrose solution of a higher concentration was compared for sweetness against that of a lower concentration but in combination with naringenin. The results were represented by the numbers of samples rated as sweeter in paired comparisons, which were then statistically analyzed using binomial distribution for two-sided comparisons at 95% confidence level. The evaluation is reported in the following: The sweetness enhancement of sucrose & Reb A combination by naringenin was also evaluated.

Data set [10] can be described thus: Sweetness enhancement of artificial sweetener sucralose by naringenin. The note with it: sucralose (40 ppm), naringenin 100 ppm. The class given is in vivo, human. The protocol: as §1
Where [11] appears, read: pair Sucrose (0.5%) vs Naringenin (100 ppm in water), p 0.40.

Data on three compounds can be found in patent publication US20150272184A1, “NARINGENIN AND SALTS THEREOF FOR SWEETNESS ENHANCEMENT” (International Flavors & Fragrances Inc., priority 2014, published 2015).

Like-named read-outs stand apart in the source and are kept apart here.

For `OC[C@H]1O[C@@](CO)(O[C@H]2O[C@H](CO)[C@@H](O)[C@H](O)[C@H]2O)[C@@H](O)[C@@H]1O` [Sucrose, sucrose, reference compound], the “Number of Samples Rated Sweeter” value in data set [1] (setting [11]) turned out to be 10; in [1] (pair Sucrose (4.4%) vs Sucrose (4%) + Naringenin (100 ppm), p 0.01, significant), 6; in data set [1] (pair Sucrose (4.8%) vs Sucrose (4%) + Naringenin (100 ppm), p >0.40), 14.

Turning to `C=C1C[C@@]23CC[C@H]4[C@@](C)(CCC[C@@]4(C)C(=O)O[C@@H]4O[C@H](CO)[C@@H](O)[C@H](O)[C@H]4O)[C@@H]2CC[C@]1(O[C@@H]1O[C@H](CO)[C@@H](O)[C@H](O[C@@H]2O[C@H](CO)[C@@H](O)[C@H](O)[C@H]2O)[C@H]1O[C@@H]1O[C@H](CO)[C@@H](O)[C@H](O)[C@H]1O)C3` [Reb A, rebaudioside A, reference compound], the “Number of Samples Rated Sweeter” value is recorded as 19 in data set [2] (pair 140 ppm Reb A vs 100 ppm Reb A + Naringenin (100 ppm), p 0.05, significant) and 5 in [2] (pair Reb A (120 ppm) vs Reb A (120 ppm) + Naringenin (100 ppm), p 0.01, significant).

Take `O=C1CC(c2ccc(O)cc2)Oc2cc(O)cc(O)c21` (centres unmarked) [Naringenin, 2,3-dihydro-5,7-dihydroxy-2-(4-hydroxyphenyl)-4H-1-benzopyran-4-one]: the “concentration at which naringenin exhibited sweetness enhancement” value in data set [3] (Reb A water solution (10 ppm)) and in [6] (yogurt with 5% sucrose) was not below 50 ppm each time. In addition, the “concentration at which undesirable off-notes developed” value in data set [3] (Reb A water solution (10 ppm)) is reported as 750 ppm; in data set [6] (yogurt with 5% sucrose), 1000 ppm. Moreover, the “Flavor Profile” value in [3] (Sample 2, naringenin 10 ppm in Reb A water solution (10 ppm)) is given as “Same as that of the base”; in [3] (Sample 3, naringenin 50 ppm in Reb A water solution (10 ppm)), “Very minor increase in sweetness”; in data set [3] (Sample 4, naringenin 75 ppm in Reb A water solution (10 ppm)) it was “Slightly more increase in sweetness”; in data set [3] (Sample 5, naringenin 100 ppm in Reb A water solution (10 ppm)) it was “Clear increase in sweetness with an impact up”; in data set [3] (Sample 6, naringenin 250 ppm in Reb A water solution (10 ppm)), “Intense sweetness with a stronger impact up”; in [3] (Sample 7, naringenin 500 ppm in Reb A water solution (10 ppm)), “Intense sweetness with a strong impact up front”. Besides, the “Flavor Profile” value in data set [3] (Sample 8, naringenin 750 ppm in Reb A water solution (10 ppm)) was “More intense sweetness with increased waxy”; in [6] (Sample 2, naringenin 10 ppm in yogurt with 5% sucrose), “Same as the base”; in data set [6] (Sample 3, naringenin 50 ppm in yogurt with 5% sucrose) it was “Minor increase in sweetness”; in data set [6] (Sample 4, naringenin 75 ppm in yogurt with 5% sucrose), “Slightly more increase in sweetness”; in data set [6] (Sample 5, naringenin 100 ppm in yogurt with 5% sucrose), “Clear increase in sweetness”; in [6] (Sample 6, naringenin 250 ppm in yogurt with 5% sucrose) it was “More intense and full-body sweetness”. Also, the “Flavor Profile” value in data set [6] (Sample 7, naringenin 500 ppm in yogurt with 5% sucrose) was “Full-body sweetness with good impact”. Moreover, the aftertaste modifier effect entry in [4] (U.S. Publication No. 2009/0004360) is “decreases the perception of bitterness or undesirable flavor”. In data set [4] (in vivo), the “taste of naringenin itself” value is listed as “weak to no sweet taste”. The “taste and flavor performance” value in data set [4] (tested up to a concentration of 10 ppm, U.S. Publication No. 2014/0170082) is “exhibits bitterness and unpleasant aftertaste, and performs poorly on flavor”. Besides, the “enhancement of Reb A sweetness” value in [2] (naringenin 100 ppm) is on record as “significantly enhanced”. In addition, in data set [2] (naringenin 100 ppm with 100 ppm Reb A, ppm of Reb A), the “enhancement compared with that provided by additional Reb A” value was less than 40 ppm. Besides, the sweetness enhancement result in data set [5], in data set [8] and in data set [10] was “enhanced sweetness with an impact up front” each time. Moreover, the solubility entry in [7] (in aqueous solutions) is given as “sparingly soluble”; in [7] (in ethanol, ether, oils (e.g., olive oil or citrus oil) and supercritical carbon dioxide), “soluble”. The “sweetness enhanced to a level of a sucrose solution” value in data set [1] (naringenin 100 ppm in combination with a 4% sucrose solution) turned out to be 4.8%. Moreover, the “intrinsic sweetness, approximate level of a sucrose solution” value in [1] (naringenin 100 ppm in water alone) is reported as approximately 0.5%. Moreover, the “enhancement of sucrose sweetness” value in data set [1] (naringenin 100 ppm with 4% sucrose solution) is “more than an additive effect”. Further, in [1] (setting [11]), the “Number of Samples Rated Sweeter” value is 16. Besides, the “enhancement of the sweetness of sucrose & Reb A combination” value in [9] (naringenin 100 ppm) was “significantly enhanced”. Moreover, the “enhancement compared with that achieved by Reb A” value in data set [9] (naringenin 100 ppm with Reb A (10 ppm) + Sucrose (4%), ppm of Reb A) was more than 20 ppm.
